{"source": "patent US20220162215A1", "about": "“COMPOSITIONS AND METHODS OF USING THE SAME FOR TREATMENT OF NEURODEGENERATIVE AND MITOCHONDRIAL DISEASE” (MITOKININ, INC., priority 2019, published 2022)", "key": {"HeLa MKYP cells": {"system": "HeLa MKYP cells", "assay": "Toxicity / cell death measured by DAPI staining (take-up)", "assay_type": "cell-based", "details": "human, 50 μM", "experimental": "H2O2 treatment was performed as a control for cell death as measured by DAPI staining.\nBriefly, HeLa MKYP cells were plated at 10,000 cells/well in 96 well plates along with compounds at various concentrations. Following 16 hrs of incubation, cells were treated with 1 uM FCCP/oligomycin for 6 hours, then analyzed via FACS for the presence of mitochondria in lysosomes (as determined by an emissions spectrum shift from the pH-sensitive mtKeima tag)."}, "[1]": {"system": "Hela MKYP (Mito-Keima/YFP-Parkin) cells", "details": "human, 22 h", "protocol": "(§1) Briefly, the Hela MKYP (Mito-Keima/YFP-Parkin) cells were seeded at 10K cells/well. EP/MTK compounds were added at seeding (cells were still in suspension). The cells were incubated with the EP/MTK compounds for 16 hours, then 1 μM FCCP/oligomycin was added for 6 hours. Prior to harvesting, cells were scored by eye under 20× magnification for the presence or absence of crystalline or aggregated compound, or round cells."}, "[2]": {"assay": "Visual inspection of crystallization", "assay_type": "physicochemical", "design": "key: 1: yes crystals; 0: no crystals", "details": "Tables 5A-5D", "protocol": "as §1"}}, "note": "Where two headings read alike, the source gives them in different places."}
{"smiles": "c1coc(CNc2ncnc3[nH]cnc23)c1", "note": "[kinetin, reference compound]", "values": [{"measurement": "Toxicity (% positive for DAPI take-up @ 50 μM)", "setting": "HeLa MKYP cells", "result": 4.9, "unit": "%"}, {"measurement": "Inspection of round cells", "setting": "[1]; 1.6 μM", "result": 0}, {"measurement": "Inspection of round cells", "setting": "[1]; 3.1 μM", "result": 0}, {"measurement": "Inspection of round cells", "setting": "[1]; 6.3 μM", "result": 0}, {"measurement": "Inspection of round cells", "setting": "[1]; 12.5 μM", "result": 0}, {"measurement": "Inspection of round cells", "setting": "[1]; 25 μM", "result": 0}, {"measurement": "Inspection of round cells", "setting": "[1]; 50 μM", "result": 0}, {"measurement": "Visual inspection of crystallization", "setting": "[2]; 1.6 μM", "result": 0}, {"measurement": "Visual inspection of crystallization", "setting": "[2]; 3.1 μM", "result": 0}, {"measurement": "Visual inspection of crystallization", "setting": "[2]; 6.3 μM", "result": 0}, {"measurement": "Visual inspection of crystallization", "setting": "[2]; 12.5 μM", "result": 0}, {"measurement": "Visual inspection of crystallization", "setting": "[2]; 25.0 μM", "result": 0}, {"measurement": "Visual inspection of crystallization", "setting": "[2]; 50.0 μM", "result": 0}]}
